Measured values as given in patent US10961309B2, “Reducing systemic regulatory T cell levels or activity for treatment of disease and injury of the CNS” (Yeda Research and Development Co. Ltd, priority 2014, dated 2021).
“Also recorded” adds a separate entry of the source.

Assays:
Type in all cases: in vivo, mouse
Aβ plaques = assay: Aβ plaque quantitation (immunohistochemistry)
Method: Tissue processing and immunohistochemistry were performed on paraffin embedded sectioned mouse (6 μm thick) and human (10 μm thick) brains. For human ICAM-1 staining, primary mouse anti-ICAM (1:20 Abcam; ab2213) antibody was used. Slides were incubated for 10 min with 3% H2O2, and a secondary biotin-conjugated anti-mouse antibody was used, followed by biotin/avidin amplification with Vectastain ABC kit (Vector Laboratories). Subsequently, 3,3′-diaminobenzidine (DAB substrate) (Zytomed kit) was applied; slides were dehydrated and mounted with xylene-based mounting solution. For tissue stainings, mice were transcardially perfused with PBS prior to tissue excision and fixation. CP tissues were isolated under a dissecting microscope (Stemi DV4; Zeiss) from the lateral, third, and fourth ventricles of the brain. For whole mount CP staining, tissues were fixated with 2.5% paraformaldehyde (PFA) for 1 hour at 4° C., and subsequently transferred to PBS containing 0.05% sodium azide. Prior to staining, the dissected tissues were washed with PBS and blocked (20% horse serum, 0.3% Triton X-100, and PBS) for 1 h at room temperature. Whole mount staining with primary antibodies (in PBS containing 2% horse serum and 0.3% Triton X-100), or secondary antibodies, was performed for 1 h at room temperature. Each step was followed by three washes in PBS. The tissues were applied to slides, mounted with Immu-mount (9990402, from Thermo Scientific), and sealed with cover-slips. For staining of sectioned brains, two different tissue preparation protocols (paraffin embedded or microtomed free-floating sections) were applied, as previously described (Baruch et al, 2013; Kunis et al, 2013). The following primary antibodies were used: mouse anti-Aβ (1:300, Covance, #SIG-39320); rabbit anti-GFP (1:100, MBL, #598); rat anti-CD68 (1:300, eBioscience, #14-0681); rat anti-ICAM-1 (1:200, Abcam, #AB2213); goat anti-GFP (1:100, Abcam, #ab6658); rabbit anti-IBA-1 (1:300, Wako, #019-19741); goat anti-IL-10 (1:20, R&D systems, #AF519); rat anti-Foxp3 (1:20, eBioscience, #13-5773-80); rabbit anti-CD3 (1:500, Dako, #IS503); mouse anti-ZO-1, mouse anti-E-Cahedrin, and rabbit anti-Claudin-1 (all 1:100, Invitrogen, #33-9100, #33-4000, #51-9000); rabbit anti-GFAP (1:200, Dako, #Z0334). Secondary antibodies included: Cy2/Cy3/Cy5-conjugated donkey anti-mouse/goat/rabbit/rat antibodies (1:200; all from Jackson Immunoresearch). The slides were exposed to Hoechst nuclear staining (1:4000; Invitrogen Probes) for 1 min. Two negative controls were routinely used in immunostaining procedures, staining with isotype control antibody followed by secondary antibody, or staining with secondary antibody alone. For Foxp3 intracellular staining, antigen retrieval from paraffin-embedded slides was performed using Retreivagen Kit (#550524, #550527; BD Pharmingen™). Microscopic analysis, was performed using a fluorescence microscope (E800; Nikon) or laser-scanning confocal microscope (Carl Zeiss, Inc.). The fluorescence microscope was equipped with a digital camera (DXM 1200F; Nikon), and with either a 20× NA 0.50 or 40× NA 0.75 objective lens (Plan Fluor; Nikon). The confocal microscope was equipped with LSM 510 laser scanning capacity (three lasers: Ar 488, HeNe 543, and HeNe 633). Recordings were made on postfixed tissues using acquisition software (NIS-Elements, F3 [Nikon] or LSM [Carl Zeiss, Inc.]). For quantification of staining intensity, total cell and background staining was measured using ImageJ software (NIH), and intensity of specific staining was calculated, as previously described (Burgess et al, 2010). Images were cropped, merged, and optimized using Photoshop CS6 13.0 (Adobe), and were arranged using Illustrator CS5 15.1 (Adobe).
From each brain, 6 μm coronal slices were collected, and eight sections per mouse, from four different pre-determined depths throughout the region of interest (dentate gyrus or cerebral cortex) were immunostained. […]

[1] = test system: hippocampal cytokine and neurotropic factor mRNA; assay: Brain parenchyma / hippocampus mRNA expression by RT-qPCR
Method: Total RNA of the hippocampal dentate gyrus (DG) was extracted with TRI Reagent (Molecular Research Center) and purified from the lysates using an RNeasy Kit (Qiagen). Total RNA of the choroid plexus was extracted using an RNA MicroPrep Kit (Zymo Research). mRNA (1 μg) was converted into cDNA using a High Capacity cDNA Reverse Transcription Kit (Applied Biosystems). The expression of specific mRNAs was assayed using fluorescence-based quantitative real-time PCR (RT-qPCR). RT-qPCR reactions were performed using Fast-SYBR PCR Master Mix (Applied Biosystems). Quantification reactions were performed in triplicate for each sample using the standard curve method. Peptidylprolyl isomerase A (ppia) was chosen as a reference (housekeeping) gene. The amplification cycles were 95° C. for 5 s, 60° C. for 20 s, and 72° C. for 15 s. At the end of the assay, a melting curve was constructed to evaluate the specificity of the reaction. For ifn-γ and ppia gene analysis, the cDNA was pre-amplified in 14 PCR cycles with non-random PCR primers, thereby increasing the sensitivity of the subsequent real-time PCR analysis, according to the manufacturer's protocol (PreAmp Master Mix Kit; Applied Biosystems). mRNA expression was determined using TaqMan RT-qPCR, according to the manufacturer's instructions (Applied Biosystems). All RT-qPCR reactions were performed and analyzed using StepOne software V2.2.2 (Applied Biosystems). The following TaqMan Assays-on-Demand™ probes were used: Mm02342430_g1 (ppia) and Mm01168134_m1 (ifn-γ).
For all other genes examined, the following primers were used: […]

5XFAD AD-Tg mice = assay: Morris water maze (MWM)
Method: Mice were given three trials per day, for 4 consecutive days, to learn to find a hidden platform located 1.5 cm below the water surface in a pool (1.1 m in diameter). The water temperature was kept between 21-22° C. Water was made opaque with milk powder. Within the testing room, only distal visual shape and object cues were available to the mice to aid in location of the submerged platform. The escape latency, i.e., the time required to find and climb onto the platform, was recorded for up to 60 s. Each mouse was allowed to remain on the platform for 15 s and was then removed from the maze to its home cage. […] The inter-trial interval for each mouse was 10 min. On day 5, the platform was removed, and mice were given a single trial lasting 60 s without available escape. On days 6 and 7, the platform was placed in the quadrant opposite the original training quadrant, and the mouse was retrained for three sessions each day. Data were recorded using the EthoVision V7.1 automated tracking system (Noldus Information Technology). Statistical analysis was performed using analysis of variance (ANOVA) and the Bonferroni post-hoc test. All MWM testing was performed between 10 a.m. and 5 p.m. during the lights-off phase.

[2] = weekly-GA vs untreated AD-Tg mice, age 6 m

CC1=C(/C=C/C(C)=C/C=C/C(C)=C/C(=O)O)C(C)(C)CCC1 [ATRA, All-trans retinoic acid]
cerebral Aβ plaque burden (Aβ plaques; 3 weeks after last ATRA injection, AD-Tg mice): 2-3 fold increase

Diphtheria toxin [DTx]
mRNA expression levels of pro-inflammatory cytokines (il-12p40, tnf-α) ([1]; AD-Tg/DTR+ mice, brain parenchyma, 3 weeks after last DTx injection): reduced mRNA expression levels
foxp3 and il10 mRNA expression ([1]; AD-Tg/DTR+ mice, hippocampus, 3 weeks after last DTx injection): increased expression
spatial learning and memory (MWM) (5XFAD AD-Tg mice; AD-Tg/DTR+ vs DTx-treated AD-Tg/DTR− mice, 3 weeks after last DTx injection): better spatial learning/memory performance; also recorded: significant improvement in spatial learning and memory

Glatiramer acetate [GA]
neuroinflammation ([1]; weekly-GA 100 μg s.c. over 4 weeks, 5XFAD AD-Tg mice, hippocampus): reduced neuroinflammation
hippocampal mRNA of anti-inflammatory cytokines IL-10 and TGF-β [1, 2]: elevation
hippocampal mRNA of neurotropic factors IGF-1 and BDNF [1, 2]: elevation
hippocampal mRNA of pro-inflammatory cytokines TNF-α, IL-1β and IL-12p40 [1, 2]: reduced expression
Aβ plaque load (Aβ plaques; daily-GA 100 μg s.c. for 1 month, 5XFAD AD-Tg mice): did not show any beneficial effect, or showed a moderate adverse effect on plaque load
Aβ plaque load (percentage of total area of hippocampal dentate gyrus) (Aβ plaques; weekly-GA, 5XFAD AD-Tg mice): robust effect; also recorded: reduction in Aβ plaque load
mean Aβ plaque numbers (Aβ plaques; weekly-GA, 5XFAD AD-Tg mice): reduction
spatial learning/memory performance in acquisition, probe and reversal phases of the MWM (5XFAD AD-Tg mice; weekly-GA vs vehicle (PBS), AD-Tg mice, age 6 m): better spatial learning/memory performance
cognitive performance (5XFAD AD-Tg mice; weekly-GA, 5XFAD AD-Tg mice, MWM 1 week, RAWM 1 and 2 months after last injection): improved cognitive performance
